Literature values, collected in patent publication US20100255105A1, “EXTENDED RELEASE PHARMACEUTICAL COMPOSITION COMPRISING METOPROLOL SUCCINATE” (ZAKLADY FARMACEUTYCZNE POLPHARMA S.A., priority 2009, published 2010).

Conditions: water at 37° C.

## COCCc1ccc(OCC(O)CNC(C)C)cc1 (stereo not shown) [metoprolol succinate]
  solubility in water: 276 mg/mL
